Assay results reported in PubChem BioAssay AID743470 (Broad Institute, 2014).
Results filed as inconclusive are left out. Activity calls are given as the source filed them.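 Rule for the calls: active = fitted curve falls past -35% at a concentration up to twice the top valid dose; inconclusive = no clear call, values can overlap the other calls; inactive = signal rising instead of falling, plus the rest.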

Tested on: HEK293T viability, CellTiter-Glo ATP luminescence, 72 h
Test: HEK293 cell cytotoxicity, dose response, cytotoxicity control, luminescence, dry powder, set 15 (AID 743470)
Details: not given

| SMILES | AC35 [µM] |
| --- | --- |
| CC[C@@]1(O)C(=O)OCc2c1cc1n(c2=O)Cc2cc3c(CN(C)C)c(O)ccc3nc2-1 | 0.181 |
| CC[C@]1(O)CC2CN(CCc3c([nH]c4ccccc34)[C@@](C(=O)OC)(c3cc4c(cc3OC)N(C=O)[C@H]3[C@@](O)(C(=O)OC)[C@H](OC(C)=O)[C@]5(CC)C=CCN6CC[C@]43[C@@H]65)C2)C1 (stereo partly drawn) | 0.651 |
| CC(C)(O)CCc1ccc(O)c2c(=O)c3c(O)c4c(cc3oc12)O[C@H]1OC=C[C@@]41O | 0.0808 |
| COc1ccc(S(=O)(=O)N(C(C)=O)c2ccc(OC(C)=O)c3ccccc23)cc1[N+](=O)[O-] | 21.5 |
| CN1CCN(CCOc2cc(OC3CCOCC3)c3c(Nc4c(Cl)ccc5c4OCO5)ncnc3c2)CC1 | 23.8 |
| Cc1nc(Nc2ncc(C(=O)Nc3c(C)cccc3Cl)s2)cc(N2CCN(CCO)CC2)n1 | 38.2 |
| Cc1cc(Nc2cc(N3CCN(C)CC3)nc(Sc3ccc(NC(=O)C4CC4)cc3)n2)n[nH]1 | 3.09 |
| COc1ccc(C2=Nn3c(nnc3-c3ccccc3OC)SC2)cc1OC | 0.377 |
| N#CC1=C(N)Oc2cc(N)ccc2C1c1ccccc1 (stereo not drawn) | 17.4 |
| CCOC(=O)CCNc1cc(N2CCc3ccccc3CC2)nc(-c2ccccn2)n1 | 9.37 |
| CC1(C)CC(c2nc(-c3ccc4ccc(-c5ccccc5)nc4c3)c3c(N)nccn23)C1 | 4.66 |
| CN(C)c1ccc2c(c1)OC(N)=C(C#N)C2c1cccc(F)c1 (stereo not drawn) | 0.586 |
| COc1ccc(C2=Nn3c(nnc3-c3ccccc3Cl)SC2)cc1OC | 6.79 |
| CCc1c2c(nc3ccc(O)cc13)-c1cc3c(c(=O)n1C2)COC(=O)C3(O)CC (stereo not drawn) | 0.0239 |
| Clc1ccccc1-c1nnc2n1N=C(c1ccc3c(c1)OCO3)CS2 | 3.54 |
| COc1ccc(S(=O)(=O)N2CC[C@@H]3[C@@H](CO)Nc4ccc(-c5ccc(C#N)cc5)cc4[C@@H]32)cc1 | 6.16 |
| Nc1ccn([C@@H]2O[C@H](CO)[C@H](O)C2O)c(=O)n1 (stereo partly drawn) | 3.18 |
| Nc1ncnc2c1c(-c1cccc(OCc3ccccc3)c1)cn2C1CC(CN2CCCC2)C1 (stereo not drawn) | 9.93 |
| COc1ccc(-c2cc(NC=O)c3ncc(-c4ccc(OC)c(OC)c4)n3c2)cc1 | 5.61 |
| COc1cc(C2C(C#N)=C(N)Oc3cc(N(C)C)ccc32)cc2c1OCO2 (stereo not drawn) | 0.184 |
| C=C([C@@H](O)[C@@H](C)O)[C@@H](OC)[C@]1(C)Cc2cc3cc(O[C@H]4CC(OC5CC(O)C(O)C(C)O5)C(O)C(C)O4)cc(O)c3c(O)c2C(=O)[C@H]1OC1CC(OC2CC(OC3CC(C)(O)C(O)C(C)O3)C(O)C(C)O2)C(O)C(C)O1 (stereo partly drawn) | 0.188 |
| N#CC1=C(N)Oc2cc(N)ccc2C1c1cccc(F)c1 (stereo not drawn) | 4.67 |
| CC(C)N1c2ccccc2C(c2ccc(F)cc2)C1/C=C/C(O)CC(O)CC(=O)O (stereo not drawn) | 4.91 |

Tested on: not listed separately
Test: as above
Details: HEK293T viability, CellTiter-Glo ATP luminescence, 72 h; at 1.35 µM (top of the series)

| SMILES | activity change, negative = cytotoxicity |
| --- | --- |
| COc1cc([C@@H]2c3cc4c(cc3[C@@H](O[C@@H]3O[C@@H]5CO[C@@H](C)O[C@H]5[C@H](O)[C@H]3O)[C@H]3COC(=O)[C@H]23)OCO4)cc(OC)c1O | -29% (inactive) |

Same assay, conditions: HEK293T viability, CellTiter-Glo ATP luminescence, 72 h; at 1.6 µM (top of the series)

| SMILES | activity change, negative = cytotoxicity |
| --- | --- |
| CCN(CCO)CCCOc1ccc2c(Nc3cc(CC(=O)Nc4cccc(F)c4)[nH]n3)ncnc2c1 | 43.7% (inactive) |

Same assay, conditions: HEK293T viability, CellTiter-Glo ATP luminescence, 72 h; at 6 µM (top of the series)

| SMILES | activity change, negative = cytotoxicity |
| --- | --- |
| CCC(C)(C)C(=O)O[C@H]1C[C@@H](C)C=C2C=C[C@H](C)[C@H](CC[C@@H]3C[C@@H](O)CC(=O)O3)[C@H]21 | 11.4% (inactive) |
| Clc1ccc(-c2cnc3ccc(-c4ccccc4)cn23)cc1 | 7.25% (inactive) |

Same assay, conditions: HEK293T viability, CellTiter-Glo ATP luminescence, 72 h; at 8 µM (top of the series)

| SMILES | activity change, negative = cytotoxicity |
| --- | --- |
| COc1ccc(S(=O)(=O)N2CC[C@@H]3[C@H](CO)Nc4ccc(-c5ccc(C#N)cc5)cc4[C@@H]32)cc1 | -17.6% (inactive) |
| COc1ccc(S(=O)(=O)N2CC[C@@H]3[C@@H](CO)N(C)c4ccc(-c5ccc(F)cc5)cc4[C@@H]32)cc1 | 0.125% (inactive) |
| COc1ccc(C2=Nn3c(nnc3-c3ccccc3F)SC2)cc1OC | -35.4% (inactive) |

Same assay, conditions: HEK293T viability, CellTiter-Glo ATP luminescence, 72 h; at 12 µM (top of the series)

| SMILES | activity change, negative = cytotoxicity |
| --- | --- |
| COc1ccc(NC(=O)Nc2ccc3c(c2)C(=O)N([C@@H](C)CO)C[C@H](C)[C@H](CN(C)Cc2ccc4c(c2)OCO4)O3)cc1 | 20.2% (inactive) |
| COc1ccc(OC)c(-c2nnc3n2N=C(c2ccc(OC)c(OC)c2)CS3)c1 | -29.9% (inactive) |
| COc1ccc(C(=O)CC2(O)C(=O)Nc3c(Cl)ccc(Cl)c32)cc1 (stereo not drawn) | -19.6% (inactive) |

Same assay, conditions: HEK293T viability, CellTiter-Glo ATP luminescence, 72 h; at 26 µM (top of the series)

| SMILES | activity change, negative = cytotoxicity |
| --- | --- |
| COc1ccc(-c2ccc3c(c2)[C@H]2[C@H](CCN2S(=O)(=O)c2ccc(OC)cc2)[C@@H](CO)N3)cc1 | -6.28% (inactive) |
| CCCCc1ccc2nc(NC(=O)OC)[nH]c2c1 | -29.4% (inactive) |
| Cc1ccccc1C1C(C#N)=C(N)Oc2cc(N)ccc21 (stereo not drawn) | -16.9% (inactive) |
| N#CC1=C(N)Oc2cc(N)ccc2C12C(=O)Nc1ccc(Br)cc12 (stereo not drawn) | 5.19% (inactive) |
| COc1ccc(-c2ccc3c(c2)[C@H]2[C@H](CCN2S(=O)(=O)c2ccc(OC)cc2)[C@@H](CO)N3C)cc1 | -44.3% (inactive) |
| Cc1cccc(C2C(C#N)=C(N)Oc3cc(N)ccc32)c1 (stereo not drawn) | -30.4% (inactive) |
| CN1c2ccc(-c3ccc(C#N)cc3)cc2[C@H]2[C@H](CCN2S(=O)(=O)c2ccc(F)cc2)[C@H]1CO | 13.6% (inactive) |
| COc1ccc(CNc2nc(N3CCC[C@H]3CO)ncc2C(=O)NCc2ncccn2)cc1Cl | -1.87% (inactive) |
| N#CC1=C(N)Oc2cc(OC(=O)c3ccccc3)ccc2C1c1cccc(Br)c1 (stereo not drawn) | -25.6% (inactive) |
| COc1ccc(C2=Nn3c(nnc3-c3ccccc3)SC2)cc1OC | -1.77% (inactive) |
| COc1cc(Nc2ncc3c(n2)-c2ccc(Cl)cc2C(c2c(F)cccc2OC)=NC3)ccc1C(=O)O | 24.7% (inactive) |
| Cc1ccc(S(=O)(=O)N2CC[C@@H]3[C@@H](CO)Nc4ccc(-c5ccc(C#N)cc5)cc4[C@@H]32)cc1 | 17.9% (inactive) |
| N#Cc1ccc(-c2ccc3c(c2)[C@H]2[C@H](CCN2S(=O)(=O)c2cccc(F)c2)[C@@H](CO)N3)cc1 | -39.9% (inactive) |
| COc1ccc(-c2cc(NC(C)=O)c3ncc(-c4ccc(OC)c(OC)c4)n3c2)cc1 | -25.2% (inactive) |
| CN(C(=O)CCCOc1ccc2[nH]c(=O)ccc2c1)C1CCCCC1 | 27% (inactive) |
| COc1ccccc1-c1nnc2n1N=C(c1ccc3c(c1)OCO3)CS2 | -39.2% (inactive) |
| Cc1c([C@H](C(Cl)Cl)[C@H](O)[C@H]2C[C@H](C)C(=O)O2)ccc2c1C(=O)[C@H]1[C@H]2C[C@@H](Br)[C@@]23O[C@@H](CO[C@H]2O)C[C@]13C | -35.3% (inactive) |
| Cc1ccc([N+](=O)[O-])cc1S(=O)(=O)N(C)C | -23.2% (inactive) |
| C[C@]1(c2nc3c(C(N)=O)cccc3[nH]2)CCCN1 | -21.6% (inactive) |

| SMILES | activity change, negative = cytotoxicity |
| --- | --- |
| COc1ccc(OC)c(-c2nnc3n2N=C(c2ccc(OC)c(OC)c2)CS3)c1 | -31.5% (inactive) |
| COc1cccc(S(=O)(=O)N2CC[C@@H]3[C@@H](CO)Nc4ccc(-c5ccc(C#N)cc5)cc4[C@@H]32)c1 | -26.5% (inactive) |
| N#CC1=C(N)Oc2ccc3ccccc3c2C1c1cccc(F)c1 (stereo not drawn) | -9.08% (inactive) |
| COc1ccc(C2CNC(=O)C2)cc1OC1CCCC1 (stereo not drawn) | -2.74% (inactive) |
| N#CC1=C(N)Oc2cc(N)ccc2C1c1ccc(Cl)cc1 (stereo not drawn) | -11.1% (inactive) |
| CN1c2ccc(-c3ccc(C#N)cc3)cc2[C@H]2[C@H](CCN2S(=O)(=O)c2cccc(F)c2)[C@H]1CO | -71.9% (inactive) |
| COc1ccc(S(=O)(=O)N2CC[C@@H]3[C@@H](CO)Nc4ccc(-c5cccc(C#N)c5)cc4[C@@H]32)cc1 | -20.5% (inactive) |
| N#CC1=C(N)Oc2cc(N)ccc2C1c1ccc2ccccc2c1 (stereo not drawn) | -9.63% (inactive) |
| Cc1ccc(C2C(C#N)=C(N)Oc3cc(N)ccc32)cc1 (stereo not drawn) | -10.5% (inactive) |
| O=C(Nc1c(Cl)cncc1Cl)c1ccc(OC(F)F)c(OCC2CC2)c1 | -18.6% (inactive) |
| N#CC1=C(N)Oc2cc(O)ccc2C1c1cccc(Br)c1 (stereo not drawn) | -24.3% (inactive) |
| COC(=O)c1ccc(C2C(C#N)=C(N)Oc3cc(N)ccc32)cc1 (stereo not drawn) | 19.4% (inactive) |
| COc1cccc(C2C(C#N)=C(N)Oc3cc(N)ccc32)c1 (stereo not drawn) | -23.2% (inactive) |
| COc1ccc(C2C(C#N)=C(N)Oc3cc(N)ccc32)cc1 (stereo not drawn) | -0.135% (inactive) |
| N#CC1=C(N)Oc2cc3c(cc2C1c1cccc(Br)c1)OCO3 (stereo not drawn) | -44.4% (inactive) |
| N#CC1=C(N)Oc2cc(N)ccc2C1c1cccc(Br)c1 (stereo not drawn) | -38% (inactive) |
| N#Cc1ccc(-c2ccc3c(c2)[C@H]2[C@H](CCN2S(=O)(=O)c2ccccc2F)[C@@H](CO)N3)cc1 | -7.37% (inactive) |
| COc1ccccc1S(=O)(=O)N1CC[C@@H]2[C@@H](CO)Nc3ccc(-c4ccc(C#N)cc4)cc3[C@@H]21 | -22.8% (inactive) |

Same assay, conditions: HEK293T viability, CellTiter-Glo ATP luminescence, 72 h; at 50 µM (top of the series)

| SMILES | activity change, negative = cytotoxicity |
| --- | --- |
| CCC(C)C(=O)OC1CC(C)C=C2C=CC(C)C(CCC(O)CC(O)CC(=O)O)C21 (stereo not drawn) | 55.2% (inactive) |
| O=P1(NCCCl)OCCCN1CCCl (stereo not drawn) | 9.21% (inactive) |

Same assay, conditions: HEK293T viability, CellTiter-Glo ATP luminescence, 72 h; at 110 µM (top of the series)

| SMILES | activity change, negative = cytotoxicity |
| --- | --- |
| O=C(c1cc(Cc2n[nH]c(=O)c3ccccc23)ccc1F)N1CCN(C(=O)C2CC2)CC1 | 31.3% (inactive) |
